Test results: patent US9763884B2, “Drug delivery system” (EB IP HYBRITABS B.V., priority 2011, dated 2017)

Experiments:
[1] = Pharmacokinetics of three single doses of sublingual testosterone solution in healthy premenopausal women; conditions: for AUC(0-t) / Cmax / MRT / Tmax / half-life / bioavailability: female, human, in vivo; for AUC(0-t) / Cmax / MRT / Tmax / half-life: serum; for AUC(0-t) / Cmax: geometric mean (% CV); for MRT / Tmax / half-life: mean ± SD
Method: All 16 subjects received each investigational drug dose once in random order. Wash-out between treatments was at least 48 h. Subjects had serial blood samples drawn via an intravenous catheter. Pharmacokinetic parameters were monitored at baseline and (at 2, 4, 6, 8, 10, 20, 30, 60, 90, 120, 180, 230 min) after dosing.
Blood samples in the placebo condition were only measured at −5, 10, 60 and 230 min.
For the placebo solution 0.50 ml was administered.
The different doses were prepared by an unblinded research associate and administered by blinded research associates. The blinded research associate administered the solution into the subjects mouth under the tongue, the subjects were instructed to keep the solution sublingually for 1 minute while moving the tongue slightly to optimize absorption. After 1 minute the blinded research associate instructed the subject to swallow the solution.
E2 was analysed by a chemiluminescence immunoassay (Siemens), the LLOQ was […]. 3α-diol-G was measured by ELISA (BioVendor), the LLOQ was 0.25 ng/mL. SHBG was measured by an electrochemiluminescent assay (ECLIA, Roche). Albumin was measured by Roche Bromocresol Green (BCG) analysis (Roche).
The pharmacokinetic parameters were analyzed using the WinNonlin software (version 5.1). Pharmacokinetic parameters including area under the curve, t=0 till t=230 min (AUC0-230), maximum concentration (Cmax) and time to maximum concentration (tmax) were calculated based on actual and baseline corrected individual concentration time curves. AUCs were estimated using the linear trapezoidal rule. Individual pharmacokinetic parameters AUC0-230 and Cmax and corresponding dose normalized parameters were log transformed and analyzed using a mixed maximum likelihood analysis (PROC MIXED in SAS, version 9.1) including subject as a random factor and drug as a fixed effect factor. Contrasts were made of the least square means to compare the different doses. Tmax was analyzed using a Wilcoxon rank sum test. This was based on the planned times corresponding to the actual tmax to prevent bias in analysis results based on differences in sampling times.
Subsequently, we divided the subjects into two subgroups, on the basis of their baseline SHBG levels (mean of placebo, 0.25, 0.50, 0.75 mg predose levels). This subdivision was based on a median split of the baseline SHBG levels. One group (N=8) with low SHBG levels (≦63 nmol/L) and the other group (N=8) with relatively high SHBG levels (>63 nmol/L).

[2] = general statement in the discussion, no source given; cited from earlier work
[3] = Clinical cross-over pharmacokinetic study of F1 versus F2 (testosterone and sildenafil citrate) in healthy pre-menopausal women; conditions: female, human, plasma, other: sublingual, 0.5 mg
Method: Sildenafil (S) and N-desmethyl-sildenafil (NDS) concentrations were determined by HPLC-MS/MS as follows.
The human plasma samples were vortex mixed and 0.5 mL of the sample was transferred into a clean test tube to which 20 μL of an Internal Standard solution (10 ng/mL) in methanol was added and vortex mixed. Then, 4 mL Methyl-Tertiary-Butyl-Ether (MTBE) was added, tubes were capped and shaken for 10 minutes and then centrifuged for 5 minutes at 2000 rcf. The tubes were placed into a snap freezer and the bottom water layer was frozen. The supernatant was transferred into a clean tube and evaporated to dryness under a stream of nitrogen. […]
Cmax and Tmax were read from the observed values. The half life was calculated from the unweighted linear regression of the log transformed data determined at the elimination phase of the pharmacokinetic profile. The Area Under Curve (O-last) was determined as the area under the concentration versus time curve from the first time point to last time point with measurable drug concentration with a linear/log-linear trapezoidal model. The AUC (0-∞) was determined by extrapolation from the time point where the last measurable drug concentration (Cp) occurred to time infinity. […] Tlag was determined as the first time point with a measurable concentration.
The calculated concentrations were used for PK calculations.

[4] = 0.25 mg, free testosterone, 0.25 mg sublingual
[5] = 0.25 mg, total testosterone, 0.25 mg sublingual
[6] = 0.5 mg, free testosterone, 0.50 mg sublingual
[7] = 0.5 mg, total testosterone, 0.50 mg sublingual
[8] = 0.75 mg, free testosterone, 0.75 mg sublingual
[9] = 0.75 mg, total testosterone, 0.75 mg sublingual
[10] = subjects with high SHBG, 0.25 mg
[11] = subjects with high SHBG, 0.50 mg
[12] = subjects with high SHBG, 0.75 mg
[13] = subjects with low SHBG, 0.25 mg, at 20 min after dosing
[14] = subjects with low SHBG, 0.50 mg, at 20 min after dosing
[15] = subjects with low SHBG, 0.75 mg, at 20 min after dosing

With `C[C@]12CC[C@H]3[C@@H](CCC4=CC(=O)CC[C@@]43C)[C@@H]1CC[C@@H]2O` [Testosterone, testosterone] the “time at which serum free and total testosterone levels peaked” value ([1]; all three doses (0.25, 0.50, 0.75 mg) sublingual) was 15 min, the AUC(0-t) ([1]; 0.25 mg, Baseline corrected AUC 0-230, free testosterone, 0.25 mg sublingual) was 0.0158 ng·h/mL and the AUC(0-t) ([1]; 0.25 mg, Baseline corrected AUC 0-230, total testosterone, 0.25 mg sublingual) was 3.23 ng·h/mL. It also gave a Cmax [1, 4] of 0.021 ng/mL, a Cmax [1, 5] of 3.79 ng/mL and an MRT [1, 4] of 52.6 min. For the same compound, the MRT [1, 5] was 57.7 min, the Tmax [1, 4] was 15.6 min and the Tmax [1, 5] was 15.6 min. It also gave a half-life ([1]; 0.25 mg, t1/2, free testosterone, 0.25 mg sublingual) of 42.3 ± 14.6 min, a half-life ([1]; 0.25 mg, t1/2, total testosterone, 0.25 mg sublingual) of 49.8 ± 16 min and a bioavailability ([1]; 0.5 mg) of 69%. For the same compound, the AUC(0-t) ([1]; 0.5 mg, Baseline corrected AUC 0-230, free testosterone, 0.50 mg sublingual) was 0.0252 ng·h/mL, the AUC(0-t) ([1]; 0.5 mg, Baseline corrected AUC 0-230, total testosterone, 0.50 mg sublingual) was 4.43 ng·h/mL and the Cmax [1, 6] was 0.032 ng/mL. For the same compound, the Cmax [1, 7] was 5.31 ng/mL, the MRT [1, 6] was 57.1 min and the MRT [1, 7] was 55.6 min. It also gave a Tmax [1, 6] of 14.4 min, a Tmax [1, 7] of 15.1 min and a half-life ([1]; 0.5 mg, t1/2, free testosterone, 0.50 mg sublingual) of 55.7 ± 27.5 min. For the same compound, the half-life ([1]; 0.5 mg, t1/2, total testosterone, 0.50 mg sublingual) was 49.7 ± 22.4 min, the bioavailability ([1]; 0.75 mg) was 58% and the AUC(0-t) ([1]; 0.75 mg, Baseline corrected AUC 0-230, free testosterone, 0.75 mg sublingual) was 0.0312 ng·h/mL. For the same compound, the AUC(0-t) ([1]; 0.75 mg, Baseline corrected AUC 0-230, total testosterone, 0.75 mg sublingual) was 5.62 ng·h/mL, the Cmax [1, 8] was 0.043 ng/mL and the Cmax [1, 9] was 6.73 ng/mL. It also gave an MRT [1, 8] of 51.4 min, an MRT [1, 9] of 59.5 min and a Tmax [1, 8] of 12.8 min. It also gave a Tmax [1, 9] of 14.3 min, a half-life ([1]; 0.75 mg, t1/2, free testosterone, 0.75 mg sublingual) of 51.1 ± 26.4 min and a half-life ([1]; 0.75 mg, t1/2, total testosterone, 0.75 mg sublingual) of 58.5 ± 24.6 min. For the same compound, the “influence on 3α-diol-G concentrations” value ([1]; increasing doses, t=0, 60, 120, 230) was “does not seem to influence”, the “maximum levels of free testosterone” value [1, 10] was 0.018 ng/mL and the “maximum levels of total testosterone” value [1, 10] was 5.00 ng/mL. The “maximum levels of free testosterone” value [1, 11] was 0.026 ng/mL, the “maximum levels of total testosterone” value [1, 11] was 7.08 ng/mL and the “maximum levels of free testosterone” value [1, 12] was 0.034 ng/mL. For the same compound, the “maximum levels of total testosterone” value [1, 12] was 9.04 ng/mL, the “maximum levels of free testosterone” value [1, 13] was 0.026 ng/mL and the “maximum levels of total testosterone” value [1, 13] was 3.18 ng/mL. For the same compound, the “maximum levels of free testosterone” value [1, 14] was 0.039 ng/mL, the “maximum levels of total testosterone” value [1, 14] was 3.93 ng/mL and the “maximum levels of free testosterone” value [1, 15] was 0.048 ng/mL. The “maximum levels of total testosterone” value [1, 15] was 4.73 ng/mL, the tolerability ([1]; three doses sublingual testosterone) was “well tolerated” and the “T1/2 of free testosterone (rapidly metabolized)” value [2] was 10 min. The Tmax [3] was 10 to 20 min and the half-life [3] was roughly 37 min.
